Source: US20090305955A1, “Cyclopeptide with Anti-Cancer Activity Derived from Collagen Type IV” (priority 2006, published 2009)
Where a SMILES comes first, the peptide text is derived from it.

Experiments:
TIMP-1 = assay: Reverse zymography of TIMP secretion, UACC-903 cells; type: cell-based, human; settings: conditioned culture medium
Protocol: (§1) FIG. 13: Effect of YSNSG (SEQ ID NO: 3) cyclopeptide on secretion of TIMP. The secretion of 3 tissue inhibitors of metalloproteinases (TIMP) was analyzed by reverse zymography (A) in a medium conditioned by control UACC-903 cells in the absence of peptide (negative control, white bar), on cells treated with the linear heptapeptide CNYYSNS (SEQ ID NO: 5) (20 μM) (positive control, black bar) or treated with cyclopeptide YSNSG (SEQ ID NO: 3) at a concentration from 5 μM to 20 μM (grey bars). The conditioned medium was recovered and analyzed as described in the methods.
(§2) The expression of MMP-2 and MMP-9 in a conditioned medium of UACC-903 cells, treated or not treated with synthetic peptides, was analyzed by zymography in the presence of gelatine as described above (Pasco et al, 2000(a)). The secretion of TIMP-2 was analyzed in a conditioned medium of UACC-903 cells by reverse zymography in the presence of gelatine, as described above (Pascal et al, 2000(a)).

TIMP-2 = assay: as above; type: cell-based, human; settings: cyclopeptide 5 to 20 μM, linear heptapeptide 20 μM
Protocol: as §1, §2

TIMP-3 = assay: as above; type: cell-based, human; settings: conditioned culture medium
Protocol: as §1, §2

[1] = test system: UACC-903 human melanoma cells; assay: In vitro proliferation test (Wst-1 reagent); type: cell-based; settings: 48 hours
Protocol: FIG. 9: In vitro proliferation test for human melanoma cells UACC-903 in the presence of the cyclopeptide YSNSG (SEQ ID NO: 3). The UACC-903 cells were incubated for 48 hours in 24-well plates, with a control medium (negative control, white bar), a linear heptapeptide CNYYSNS (SEQ ID NO: 5) (positive control, black bar) or concentrations of cyclopeptide YSNSG (SEQ ID NO: 3) varying from 5 μM to 20 μm (grey bars).
B16F1 cells, a metastasic sub-line of B16 murine melanoma pulmonary cells (d-Dr M Grégoire, INSERM U419, Nantes, France) were cultivated in RPMI 1640 medium, supplemented with 5% foetal calf serum (FCS) in 25 cm^2 flasks (Nunclon, VWR Int, Strasbourg, France) in a humid atmosphere containing 5% CO2. UACC-903 cells, a melanoma cell line (Dr J Trent, Phoenix, Ariz.) were cultivated in DMEM medium containing 4.5 g/l glucose, supplemented with 5% FCS in 25 cm^2 flasks (Nunclon) in a moist atmosphere containing 5% CO2. HMEC-1 cells (human microvascular entothelial cells; E W Ades, Center for Disease Control and Prevention, Atlanta, Ga.) and HUVEC cells (human umbilical vein endothelial cells) were cultivated in endothelial cell growth medium (ECGM) supplemented with ECGS/H at 0.4% (by weight), 2% (by volume) foetal calf serum, epidermal growth factor (EGF) 10 ng/ml, 1 μg/ml of hydrocortisone, 50 ng/ml of amphotericin B and 50 μg/ml of gentamicin.
Cell proliferation was determined using the reagent Wst-1 following the manufacturer's instructions. This reagent contains a tetrazolium salt which is reduced by mitochondrial oxido-reductases and allows the proliferation and viability of cells to be evaluated. Its reduction gives rise to a soluble formazan derivative which is yellow in colour. Before reaching confluence, the cells were washed twice with a saline solution buffered with phosphate (phosphate buffered saline; PBS) to remove SVF residues and incubated for 48 hours in DMEM medium, in the presence or absence of synthetic peptides at concentrations of 0 to 20 μM. The medium was recovered then centrifuged at 500 g for 10 min at 4° C. to remove cell debris. The protein contents of the medium obtained was determined using Bradford's method using SAB as the reference.

UACC-903 melanoma cells = assay: In vitro invasion/migration test (modified Boyden chambers, Matrigel); type: cell-based, human; settings: 20 μM; 48 hours; Matrigel membranes, 10% FCS chemoattractive agent
Protocol: FIG. 10: In vitro migration test for UACC-903 human melanoma cells in the presence of the cyclopeptide YSNSG (SEQ ID NO: 3). The UACC-903 cells were incubated with a control medium (control, negative, white bar), a linear heptapeptide CNYYSNS (SEQ ID NO: 5) (positive control, black bar) or with the cyclopeptide YSNSG (SEQ ID NO: 3) at 20 μM (grey bar). After an incubation period of 48 hours, the migrated cells were stained with crystal violet and counted under reverse microscopy.
Cell invasion was tested in modified Boyden chambers (ThinCert®, a cell culture insert for 24-well plates, internal diameter 8.36 mm, 8 μm pore, Greiner Bio-one, Courtaboeuf, France). Briefly, 5×10^4 cells were suspended in DMEM medium without FCS and containing 0.2% BSA and seeded onto membranes spread with Matrigel (30 μg/cm^2). DMEM medium supplemented with 10% FCS and 2% BSA were used as the chemo-attracting agent. […] The cells remaining on the upper surface of the membranes were eliminated by scraping and those on the lower surface were counted using a reverse microscope (Pasco et al, 2000(a)). The counted cells corresponded to the cells which had crossed the Matrigel mat then the porous membrane of the Boyden chamber; they thus reflected the migration and invasion capacities of the tumour cells through an extracellular matrix or a basal membrane, reproduced in this case by the Matrigel.

u-PA = assay: Zymography in the presence of gelatine and plasminogen, UACC-903 cells; type: cell-based, human; settings: cyclopeptide 5 to 20 μM, linear heptapeptide 20 μM
Protocol: (§3) FIG. 14: Effect of YSNSG (SEQ ID NO: 3) cyclopeptide on the secretion of plasminogen activators. The secretion of u-PA (urokinase type plasminogen activator) and t-PA (tissue plasminogen activator) was analyzed by zymography in the presence of gelatine and plasminogen (A) in a medium conditioned by control UACC-903 cells in the absence of peptide (negative control, white bar), on cells treated with linear heptapeptide CNYYSNS (SEQ ID NO: 5) (20 μM) (positive control, black bar) or treated with the cyclopeptide YSNSG (SEQ ID NO: 3) at a concentration varying from 5 μM to 20 μM (grey bars). The conditioned medium was recovered and analyzed as described in the methods.
(§4) To determine the plasminogen activities, conditioned media of UACC-903 cells were analyzed by polyacrylamide gel electrophoresis in the presence of SDS and containing 1 mg/ml of gelatine and 10 μg/ml of plasminogen. After electrophoresis, the gels were incubated overnight at ambient temperature in a 100 mM glycine, 5 mM EDTA, pH 8.0 buffer.

t-PA = assay: as above; type: cell-based, human; settings: cyclopeptide 5 to 20 μM, linear heptapeptide 20 μM
Protocol: as §3, §4

Compound: NC(=O)CC1NC(=O)C(CO)NC(=O)C(Cc2ccc(O)cc2)NC(=O)CNC(=O)C(CO)NC1=O (stereo not shown) [cyclopeptide YSNSG, cyclopeptide YSNSG (SEQ ID NO: 3)] (cyclo(GYSNS); configuration not given here)
- Secretion of TIMP-1 (TIMP-1): not modified
- secretion of TIMP-2 (TIMP-2): dose-dependent increase
- Secretion of TIMP-3 (TIMP-3): not modified
- inhibited the proliferation of UACC-903 melanoma cells ([1]; 5 μM): 27%
- inhibited the proliferation of UACC-903 melanoma cells ([1]; 10 μM): 29%
- inhibited the proliferation of UACC-903 melanoma cells ([1]; 20 μM): 40%
- reduction in the migration of UACC-903 cells (UACC-903 melanoma cells): −47%
- secretion of u-PA (u-PA): dose-dependent reduction
- secretion of t-PA (t-PA): dose-dependent reduction

Compound: CNYYSNS (Synthetic linear heptapeptide) [linear peptide NC1 [α3(IV) 185-191], the 7 N-terminal amino acids of the 185-203 domain; positive control, reference compound]
- Secretion of TIMP-1 (TIMP-1): not modified
- secretion of TIMP-2 (TIMP-2): dose-dependent increase
- Secretion of TIMP-3 (TIMP-3): not modified
- In vitro proliferation of UACC-903 human melanoma cells, change vs control ([1]; linear heptapeptide positive control, concentration not given): −45%
- reduction in the migration of UACC-903 cells (UACC-903 melanoma cells): similar
- secretion of u-PA (u-PA): reduction observed
- secretion of t-PA (t-PA): reduction observed
